Measurements as given in US9302996B2, “Continuous arycyclic compound” (MITSUBISHI TANABE PHARMA CORPORATION, priority 2010, dated 2016).
Read-outs that look alike come from different tables or passages of the source.

Experiments:
Format in all cases: in vivo
KK-Ay mice = experiment: Weight gain-inhibiting action, hypoglycemic effect, insulin in blood plasma lowering action in KK-Ay mice; conditions: Mus musculus, 336 h, male KK-Ay mice, high fat diet, 30 mg/kg/day oral, 2 weeks
C57BL/6J mice = experiment: Antifeeding activity (high fat diet intake up to 4 hours); conditions: Mus musculus, male C57BL/6J mice, 5 mg/kg oral, food ingested up to 4 hours, read-out: Antifeeding rate (5 mg/kg)
ICR mice = experiment: Triglyceride (TG) in blood plasma increase-inhibiting action due to lipid administration; conditions: Mus musculus; male ICR mice, 5 mg/kg oral, lipid (Intralipos 20%) after 30 minutes, plasma TG 2 hours after lipid; read-out: Inhibiting rate of TG-increase in blood plasma (5 mg/kg)
Summary of the method: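 Male ICR mice (6–9 weeks), fasted overnight, dosed orally with compound in 0.2% CMC; oral lipid emulsion (10 mL/kg) 30 min later. Plasma TG from tail vein before and 2 h after lipid load; rise in TG expressed as percent inhibition versus vehicle group.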

[1] = read-out: Hypoglycemic action (30 mg/kg/day)
[2] = read-out: Insulin in blood plasma-lowering action (30 mg/kg/day)
[3] = read-out: Weight gain-inhibiting action (30 mg/kg/day)

Row | SMILES | inhibition in vivo at 30 mg/kg (KK-Ay mice; [1]) [%] | inhibition in vivo at 30 mg/kg (KK-Ay mice; [2]) [%] | inhibition in vivo at 30 mg/kg (KK-Ay mice; [3]) [%] | inhibition in vivo at 5 mg/kg (C57BL/6J mice) [%] | inhibition in vivo at 5 mg/kg (ICR mice) [%]
1 | CC(C)(COc1ccc(-c2ccc(-c3ncc(C(F)(F)F)[nH]3)cn2)cc1F)C(=O)O [Example 4-2), 3-(2-fluoro-4-{5-[5-(trifluoromethyl)-1H-imidazol-2-yl]pyridin-2-yl}phenoxy)-2,2-dimethylpropanoic acid] | 50 | 52 | 49 | 82 | 60
2 | Cc1cc(OCC(C)(C)C(=O)O)ncc1-c1cnc(-c2ncc(C(F)(F)F)[nH]2)c(F)c1 [Example 107] | 57 | 58 | 48 | 57 | 62
3 | Cc1cc(OCC(C)(C)C(=O)O)ncc1-c1ccc(-c2ncc(C3(C(F)(F)F)CC3)[nH]2)cc1 [Example 39] | 44 | 50 | 38 | 76 | 54
4 | CC(C)(COc1cnc(-c2ccc(-c3nc(C(F)(F)F)c[nH]3)cc2)cn1)C(=O)O [Example 89-2), 2,2-dimethyl-3-[(5-{4-[4-(trifluoromethyl)-1H-imidazol-2-yl]phenyl}pyrazin-2-yl)oxy]-propanoic acid] | 68 | 88 | 63 | 75 | 52
5 | Cc1cc(OCC(C)(C)C(=O)O)ncc1-c1ccc(-c2ncc(C(F)(F)F)[nH]2)c(C)c1 [Example 77] | 60 | 65 |  | 65 | 75
6 | CC(C)(COc1ccc(-c2ccc(-c3ncc(C4CC(F)(F)C4)[nH]3)cn2)cc1)C(=O)O [Example 33] | 42 | 41 | 39 | 44 | 54
7 | Cc1cc(OCC(C)(C)C(=O)O)ncc1-c1ccc(-c2ncc(C(F)(F)F)[nH]2)nc1 [Example 61-3), 2,2-dimethyl-3-({4-methyl-6′-[5-(trifluoromethyl)-1H-imidazol-2-yl]-3,3′-bipyridin-6-yl}oxy)propanoic acid] | 60 | 77 | 90 | 80 | 68
